Assay results as given in patent publication US20120244196A1, “PHARMACEUTICAL COMPOSITION CONTAINING MEDICAMENT-CONTAINING FINE PARTICLES AND METHOD FOR PRODUCING SAME” (NITTO DENKO CORPORATION, priority 2009, published 2012).
“And” between values parts separate entries of the source, which are not always exact repeats. Equal entries are not always repeated.

Legend:
[1] = system: antibody against OVA in the serum; experiment: mouse immunity experiment, humoral immunity level (ELISA); type: in vivo, mouse (C57BL/6 lineage); conditions: 200 μL intradermal, 62.5 μg/ml egg albumin, 3 injections at one week interval, one week after final injection, N = 2
Method: (§1) 200 μL of small particles of Example 10 (egg albumin concentration 62.5 μg/ml, pH 6.5) or egg albumin solution (egg albumin concentration 62.5 μg/ml, pH 6.5) was intradermally injected to the back of mouse (C57BL/6 lineage). Injection at one week interval was repeated twice, totaling 3 injections. One week after final injection, the humoral immunity level and cellular immunity level of the mouse were evaluated. The humoral immunity level was evaluated by measuring the amount of antibody against OVA in the serum based on the absorbance by ELISA method. The cellular immunity level was evaluated by stimulating the isolated spleen cells with OVA peptide, counting the spot number of the ELISPOT method, and measuring the secreted amount of IFN-y.

[2] = system: isolated spleen cells stimulated with OVA peptide; experiment: mouse immunity experiment, cellular immunity level (ELISPOT); type: in vivo, mouse (C57BL/6 lineage); conditions: 200 μL intradermal, 62.5 μg/ml egg albumin, 3 injections at one week interval, one week after final injection, N = 2
Method: as §1

Substance: OVA solution: egg albumin solution (egg albumin concentration 62.5 μg/ml, pH 6.5), control in mouse immunity experiment
- humoral immunity level of serum (absorbance at 450 nm by ELISA analysis), average [1]: 0.32
- humoral immunity level of serum (absorbance at 450 nm by ELISA analysis), individual mice [1]: 0.23 and 0.40
- cellular immunity level of spleen cell (SPOT number of ELISPOT analysis), average [2]: 62
- cellular immunity level of spleen cell (SPOT number of ELISPOT analysis), individual mice [2]: 77 and 46
